Assay results: the NIST ThermoML archive (doi:10.1021/je300775u)

Assay: xn = mol fraction of the nth substance listed
Conditions: 101 kPa, Liquid; for speed of sound: Pulse-echo method; for mass density: Vibrating tube method

BrCBr [dibromomethane] + CCCCCCC
Conditions | mass density, 293.15 K [kg/m3] | mass density, 298.15 K [kg/m3] | speed of sound, 293.15 K [m/s] | speed of sound, 298.15 K [m/s] | speed of sound, 303.15 K [m/s]
x1 = 0.0504 | 727.59 | 723.09 | 1128.1 | 1107.3 | 1086.4
x1 = 0.1039 | 776.8 | 772.01 | 1104.9 | 1084.7 | 1064.4
x1 = 0.1552 | 826.84 | 821.77 | 1084 | 1064.4 | 1044.8
x1 = 0.2037 | 877.02 | 871.66 | 1065.7 | 1046.5 | 1027.3
x1 = 0.2532 | 931.38 | 925.72 | 1048.3 | 1029.7 | 1010.9
x1 = 0.3019 | 988.09 | 982.12 | 1032.4 | 1014.2 | 995.8
x1 = 0.354 | 1052.94 | 1046.61 | 1016.7 | 999.1 | 981.2
x1 = 0.4022 | 1117.05 | 1110.37 | 1003.5 | 986.1 | 968.8
x1 = 0.4552 | 1192.54 | 1185.46 | 990.1 | 973.2 | 956.4
x1 = 0.4962 | 1254.87 | 1247.47 | 980.6 | 964.2 | 947.8
x1 = 0.5532 | 1347.9 | 1339.98 | 969.3 | 953.3 | 937.4
x1 = 0.6119 | 1452.49 | 1444.09 | 959.2 | 943.8 | 928.3
x1 = 0.6543 | 1534.18 | 1525.37 | 953.4 | 938.2 | 923.1
x1 = 0.7032 | 1635.75 | 1626.46 | 948 | 933.3 | 918.6
x1 = 0.7514 | 1744.18 | 1734.39 | 944.6 | 930.2 | 915.8
x1 = 0.8024 | 1869.64 | 1859.25 | 942.9 | 928.9 | 915
x1 = 0.8518 | 2003.09 | 1992.14 | 943.8 | 930.2 | 916.5
x1 = 0.9004 | 2147.05 | 2135.43 | 947.2 | 933.8 | 920.3
x1 = 0.9502 | 2310.37 | 2298.08 | 953.1 | 940.1 | 927.1
x1 = 1 | 2491.67 | 2478.61 | 961.8 | 949.2 | 936.6
